Results taken from patent publication US10688099B2, “Methods for modulating the amount of RNA transcripts” (PTC Therapeutics, Inc., priority 2013, dated 2020).

System: RNA isoforms in PNN 1-46 SMA type I patient-derived fibroblasts
Assay: RNA Abundance Modulation (RNA isoform abundance, iFPM, HiSeq RNA sequencing)
Format: cell-based, human
Details: 3 μM
Method: Cells from a cell line of interest are cultured in conditions sufficient to yield the number of cells capable of generating enough RNA for subsequent sequencing steps. Cells from the tested cell line are contacted with a compound described herein.
To culture said cells, they are seeded, at appropriate concentrations in a volume of media in a cell culture container and incubated for 4, 5, 6, 7, 8, 9, 10, or more hours. A concentrated solution of compound in a vehicle (e.g., DMSO) is then added in sufficient volume to result in the intended final concentration of the compound, for example 100 nM, 500 nM, 1 μM, 5 μM, 10 μM, 15 μM, 20 μM, or more. The cells may also be treated with vehicle alone, as a control. A number of replicates of each concentration or control may be made (e.g., 2 replicates). The cells are then incubated at a constant temperature appropriate for cell culture of the particular cell line (e.g., 37° C.) for 6, 12, 18, 24, 48, or more hours. After incubation, the growth medium is removed and the cells are washed with the appropriate buffer (e.g., PBS). Cells are then removed from adherence to the cell culture container by treatment with a solution containing trypsin, and the trypsin subsequently quenched with the appropriate volume of buffer (e.g., DMEM-FBS). The cells are then pelleted with gentle centrifugation (e.g., ≤90×g centrifugal force) and resuspended in a buffer to lyse the cells for extraction of RNA. The cell lysates may then be frozen (e.g., at −80° C.) or, alternately, may immediately be used in a procedure to purify the RNA (e.g. by use of the RNEASY PLUS® minikit). The RNA from cell lysates is eluted in the appropriate volume of buffer (e.g., RNEASE-FREE H2O®). The resulting purified RNA may then be sequenced (e.g., using RNASeq) or analyzed using a human exon array (e.g., by GENECHIP® human exon array) to determine changes in the RNA levels in those cells treated with compound compared to those cells treated only with DMSO. The purified RNA may also be quantified by other methods known in the art.
Using the RNA data obtained from sequencing, exon array, or other methods, a statistical analysis can reveal changes in the RNA levels of compound-treated compared with control. For example, t-test p-values may be calculated for the data obtained through sequencing and exon array methods in order to compare compound-treated cells to those treated with the DMSO control. […] Analysis of the sequencing and exon array data may then also yield predictions about the cause of the aberrant amount of an RNA transcript in the cells (e.g., perturbation of RNA splicing, RNA transcription, or RNA stability). These predictions may be further confirmed by methods known in the art. For example, RT-PCR and RT-qPCR may be used to confirm the change in amount of RNA transcripts for one or more particular transcripts of interest.
Following the methods described above in Example 1, PNN 1-46 SMA type I patient-derived fibroblasts were treated with 300 nM or 3 μM Compounds 774 and 808 in 0.5% DMSO.
700,000 cells were seeded in 10 mL of medium (DMEM plus 10% FBS) in a T-75 flask. Cells were allowed to attach for at least 4 hrs, after which 50 μL of a 200× compound solution (100% DMSO) was added to each well, and the plate was incubated at 37° C. for 24 hrs.
At the end of the incubation period, the supernatant was removed and the cells where washed with PBS. TrypLE (Invitrogen) express solution was added (e.g. 1.5 mL per one T75 flask). The flasks were incubated for 3 to 5 min at 37° C. The trypsin was then quenched, e.g., by adding 10 mL DMEM-FBS.
Next, the cells were pelleted using gentle centrifugation without exceeding 90×g centrifugal force. The supernatant was removed and the cell pellet was re-suspended in 600 μL RLT buffer (the RLT buffer was supplemented with beta-mercaptoethanol according to the RNeasy protocol manual) by pipetting up and down until the pellet was completely dissolved […]

CCc1nc(C)cn2nc(-c3cc(=O)n4cc(C5CCN(C)CC5)cc(C)c4n3)cc12 [Compound 774]
amp FC (x + 1) (U2SURP BC006474): 1.09 | ave Cpd (U2SURP BC006474): 1249 iFPM | FC (x + 1) (U2SURP BC111692): 1.9191 | L2FC (x + 1) (U2SURP BC111692): 0.940 | L2abs (Cpd-DMSO) (U2SURP BC111692): 3.18 | abs (Cpd-DMSO) (U2SURP BC111692): 9 iFPM | amp FC (x + 1) (U2SURP BC111692): 1.92 | ave Cpd (U2SURP BC111692): 18 iFPM | FC (x + 1) (U2SURP NM_001080415): 2.2780 | L2FC (x + 1) (U2SURP NM_001080415): 1.188 | L2abs (Cpd-DMSO) (U2SURP NM_001080415): 7.79 | abs (Cpd-DMSO) (U2SURP NM_001080415): 222 iFPM | amp FC (x + 1) (U2SURP NM_001080415): 2.28 | ave Cpd (U2SURP NM_001080415): 395 iFPM | FC (x + 1) (UBAP2L AJ243668): 0.4506 | L2FC (x + 1) (UBAP2L AJ243668): −1.150 | L2abs (Cpd-DMSO) (UBAP2L AJ243668): 6.40 | abs (Cpd-DMSO) (UBAP2L AJ243668): 84 iFPM | amp FC (x + 1) (UBAP2L AJ243668): 2.22 | ave Cpd (UBAP2L AJ243668): 68 iFPM | FC (x + 1) (UBAP2L AJ243669): 0.2687 | L2FC (x + 1) (UBAP2L AJ243669): −1.896 | L2abs (Cpd-DMSO) (UBAP2L AJ243669): 6.45 | abs (Cpd-DMSO) (UBAP2L AJ243669): 88 iFPM | amp FC (x + 1) (UBAP2L AJ243669): 3.72 | ave Cpd (UBAP2L AJ243669): 31 iFPM | FC (x + 1) (UBAP2L AJ243670): 3.1873 | L2FC (x + 1) (UBAP2L AJ243670): 1.672 | L2abs (Cpd-DMSO) (UBAP2L AJ243670): 1.13 | abs (Cpd-DMSO) (UBAP2L AJ243670): 2 iFPM | amp FC (x + 1) (UBAP2L AJ243670): 3.19 | ave Cpd (UBAP2L AJ243670): 2 iFPM | FC (x + 1) (UBAP2L AK124294): 0.4670 | L2FC (x + 1) (UBAP2L AK124294): −1.099 | L2abs (Cpd-DMSO) (UBAP2L AK124294): 5.20 | abs (Cpd-DMSO) (UBAP2L AK124294): 37 iFPM | amp FC (x + 1) (UBAP2L AK124294): 2.14 | ave Cpd (UBAP2L AK124294): 31 iFPM | FC (x + 1) (UBAP2L AK302662): 0.2827 | L2FC (x + 1) (UBAP2L AK302662): −1.822 | L2abs (Cpd-DMSO) (UBAP2L AK302662): 8.14 | abs (Cpd-DMSO) (UBAP2L AK302662): 283 iFPM | amp FC (x + 1) (UBAP2L AK302662): 3.54 | ave Cpd (UBAP2L AK302662): 110 iFPM | FC (x + 1) (UBAP2L AK302953): 0.5118 | L2FC (x + 1) (UBAP2L AK302953): −0.966 | L2abs (Cpd-DMSO) (UBAP2L AK302953): 8.57 | abs (Cpd-DMSO) (UBAP2L AK302953): 381 iFPM | amp FC (x + 1) (UBAP2L AK302953): 1.95 | ave Cpd (UBAP2L AK302953): 399 iFPM | FC (x + 1) (UBAP2L AK303533): 0.0476 | L2FC (x + 1) (UBAP2L AK303533): −4.392 | L2abs (Cpd-DMSO) (UBAP2L AK303533): 4.32 | abs (Cpd-DMSO) (UBAP2L AK303533): 20 iFPM | amp FC (x + 1) (UBAP2L AK303533): 20.99 | ave Cpd (UBAP2L AK303533): 0 iFPM | FC (x + 1) (UBAP2L NM_014847): 0.3090 | L2FC (x + 1) (UBAP2L NM_014847): −1.695 | L2abs (Cpd-DMSO) (UBAP2L NM_014847): 10.25 | abs (Cpd-DMSO) (UBAP2L NM_014847): 1219 iFPM | amp FC (x + 1) (UBAP2L NM_014847): 3.24 | ave Cpd (UBAP2L NM_014847): 544 iFPM | FC (x + 1) (UBAP2L NM_001127320): 0.4857 | L2FC (x + 1) (UBAP2L NM_001127320): −1.042 | L2abs (Cpd-DMSO) (UBAP2L NM_001127320): 10.01 | abs (Cpd-DMSO) (UBAP2L NM_001127320): 1030 iFPM | amp FC (x + 1) (UBAP2L NM_001127320): 2.06 | ave Cpd (UBAP2L NM_001127320): 972 iFPM | FC (x + 1) (UBE2V1 NM_021988): 0.9186 | L2FC (x + 1) (UBE2V1 NM_021988): −0.122 | L2abs (Cpd-DMSO) (UBE2V1 NM_021988): 2.64 | abs (Cpd-DMSO) (UBE2V1 NM_021988): 6 iFPM | amp FC (x + 1) (UBE2V1 NM_021988): 1.09 | ave Cpd (UBE2V1 NM_021988): 69 iFPM | FC (x + 1) (UBE2V1 NM_022442): 0.2858
